Measurements: patent US20120220600A1, “N-Oxide of 3-(2,6-dichloro-3,5-dimethoxy-phenyl) -1--1-methyl-urea” (priority 2009, published 2012)
Converted amounts (≈) assume the structure as drawn.

Assays:
[1] = In vitro metabolic stability in human liver microsomes; type: in vitro ADME; settings: for CLint Rank: 1 μM
Experimental: (§1) The metabolism of drugs occurs mainly in the liver, which contains a wide variety of metabolic enzymes at concentrations higher than those observed in other organs. Metabolic stability or clearance (CL), particularly hepatic clearance (CLh), is a factor in determining drug concentration in blood. Generally, the higher the metabolic stability of a compound is, the lower the clearance of the compound.
(§2) The metabolic stability of each of Compounds 1 and 2 were determined at a concentration of 1 μM in mouse, rat, dog, monkey and human hepatic microsomal preparations. The compound tested, microsomal protein, and co-factors were combined, in duplicate, and incubated under appropriate conditions. Aliquots were removed at 0, 10 and 30 min, centrifuged and the supernatants analyzed by LC/MS/MS. Based on the percentage of the test compound remaining relative to the 0 min time point, the in vitro elimination rate constant, in vitro half-life (t1/2) and in vitro intrinsic clearance (CLint) parameters were calculate which allow for predicting the CLh values.

[2] = In vitro metabolic stability in monkey liver microsomes; type: in vitro ADME; settings: for microsomal CLint at 1 μM: monkey, liver microsomes
Experimental: as §1, §2

[3] = In vitro metabolic stability in mouse liver microsomes; type: in vitro ADME; settings: for microsomal CLint at 1 μM: mouse, liver microsomes
Experimental: as §1, §2

hERG channels = target: T1, hERG channels (Homo sapiens, UniProt Q12809); assay: hERG radioligand binding assay ([3H]dofetilide competition); settings: [3H]dofetilide binding, HEK293 cell membranes stably transfected with hERG
T1 construct: expressed in transfected cells; host or cells: HEK293 (stably transfected), membrane preparation
Experimental: The ability of Compounds 1 and 2 to inhibit the hERG (potassium channel) activity was tested using a radioligand binding assay in which test compounds competed for [^3H]dofetilide binding to a membrane preparation of HEK293 cell membranes stably transfected with hERG channels.

[4] = Solubility in buffer (pH 1); type: physicochemical; settings: pH 1, aqueous buffer
Text: (§3) Certain physicochemical properties of the compounds, as measured, are provided below: […]

[5] = Ionization constants (pKa1/pKa2); type: physicochemical; settings: ionization constant for acidity
Text: as §3

Caco-2 cell monolayers = assay: Permeability across Caco-2 cell monolayers; type: in vitro ADME, human; settings: for Mechanism: Caco-2, based on B-A/A-B and clogP; for Permeability Ranking: Caco-2, based on Papp A-B
Experimental: (§4) The permeability of Compounds 1 and 2 across the intestinal barrier and the involvement of drug efflux transporters such as P-glycoprotein (P-gp, MDR-1) were assessed in vitro using the Caco-2 cell line. […] Caco-2 cells were seeded on PET (polyethylene terephthalate) filters in a 96 well format and cultured for 18-25 days to develop monolayers. Test compound solutions (10 μM in transport buffer) were added to either the apical (A) or basolateral (B) side of the Caco-2 cell monolayer to measure the membrane permeability from the A to B compartments [Papp(A-B)] or from the B to A compartments [Papp(B-A]. The assay was carried out in HBSS (Hank's Balanced Salts) buffer, pH 7.4 (for both sides) for 120 min at 37° C. Samples were taken from apical or basolateral compartments at scheduled times (0 min and 120 min) and quantified by LC/MS/MS. The results are presented in Table 4.

[6] = Permeability across Caco-2 cell monolayers; type: in vitro ADME, human; settings: human, Caco-2, 10 μM, pH 7.4, 120 min; for Papp A→B at 120 min, 10 μM / Papp B→A at 120 min, 10 μM: 37° C.; for Papp A→B at 120 min, 10 μM: apical to basolateral; for Papp B→A at 120 min, 10 μM: basolateral to apical; for efflux ratio at 120 min, 10 μM: read-out: Papp B-A/A-B
Experimental: as §4

[7] = In vitro metabolic stability in rat liver microsomes; type: in vitro ADME; settings: for microsomal CLint at 1 μM: rat, liver microsomes
Experimental: as §1, §2

[8] = In vitro metabolic stability in dog liver microsomes; type: in vitro ADME; settings: for microsomal CLint at 1 μM: dog, liver microsomes
Experimental: as §1, §2

T1 sequence (Q12809 whole entry): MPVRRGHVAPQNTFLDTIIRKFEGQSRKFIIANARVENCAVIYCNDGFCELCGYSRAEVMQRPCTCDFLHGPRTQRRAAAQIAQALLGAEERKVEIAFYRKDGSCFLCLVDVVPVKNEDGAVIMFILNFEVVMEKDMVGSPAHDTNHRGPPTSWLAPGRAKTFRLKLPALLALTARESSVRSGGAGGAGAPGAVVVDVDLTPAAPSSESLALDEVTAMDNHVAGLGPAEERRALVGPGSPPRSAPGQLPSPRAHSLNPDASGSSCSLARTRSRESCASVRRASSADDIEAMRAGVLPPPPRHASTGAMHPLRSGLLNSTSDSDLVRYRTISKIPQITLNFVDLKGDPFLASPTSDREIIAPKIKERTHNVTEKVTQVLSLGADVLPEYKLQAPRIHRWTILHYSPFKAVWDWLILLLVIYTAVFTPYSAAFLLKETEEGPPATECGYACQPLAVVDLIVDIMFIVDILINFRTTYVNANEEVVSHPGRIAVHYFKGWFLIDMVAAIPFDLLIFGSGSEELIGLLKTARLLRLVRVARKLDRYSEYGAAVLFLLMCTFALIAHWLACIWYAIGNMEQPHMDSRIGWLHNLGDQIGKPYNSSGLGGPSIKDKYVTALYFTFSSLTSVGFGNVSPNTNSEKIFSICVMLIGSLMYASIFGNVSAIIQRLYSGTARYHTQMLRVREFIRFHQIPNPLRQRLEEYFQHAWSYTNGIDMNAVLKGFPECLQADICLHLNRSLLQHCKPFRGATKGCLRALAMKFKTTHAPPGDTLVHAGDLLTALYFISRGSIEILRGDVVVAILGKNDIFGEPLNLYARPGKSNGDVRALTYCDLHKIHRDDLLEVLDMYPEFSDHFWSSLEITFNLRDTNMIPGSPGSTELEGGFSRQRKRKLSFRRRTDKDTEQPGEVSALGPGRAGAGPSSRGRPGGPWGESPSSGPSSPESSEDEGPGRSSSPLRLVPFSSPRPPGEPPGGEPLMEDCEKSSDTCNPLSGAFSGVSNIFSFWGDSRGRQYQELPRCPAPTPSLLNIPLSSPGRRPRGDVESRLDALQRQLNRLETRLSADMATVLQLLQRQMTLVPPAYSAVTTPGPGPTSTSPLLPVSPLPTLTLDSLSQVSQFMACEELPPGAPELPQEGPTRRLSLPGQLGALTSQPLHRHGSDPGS

Row | half-life at 1 μM [1] [min] | microsomal CLint at 1 μM [1] [µL/min/mg] | CLint Rank [1] | half-life at 1 μM [2] [min] | microsomal CLint at 1 μM ([2]; read-out: CLint) [µL/min/mg] | half-life at 1 μM [3] [min] | microsomal CLint at 1 μM ([3]; read-out: CLint) [µL/min/mg] | solubility [4] [µM] | pKa1 [5] | pKa2 [5] | Mechanism (Caco-2 cell monolayers) | Permeability Ranking (Caco-2 cell monolayers) | Papp A→B at 120 min, 10 μM [6] [×10⁻⁶ cm/s] | Papp B→A at 120 min, 10 μM [6] [×10⁻⁶ cm/s] | efflux ratio at 120 min, 10 μM [6] | half-life at 1 μM [7] [min] | microsomal CLint at 1 μM ([7]; read-out: CLint) [µL/min/mg] | half-life at 1 μM [8] [min] | microsomal CLint at 1 μM ([8]; read-out: CLint) [µL/min/mg] | SMILES | IC50 (hERG channels) [µM] | further results
1 | 37.4 | 37.1 | low | 35.7 | 38.9 | 55.2 | 25.1 | 700 (≈ 404 µg/mL) | 4.5 | 3.2 | Efflux (Efflux: B-A/A-B ≧3) | Low | 0.47 | 9.51 | 20.2 | 46.8 | 29.6 | 30.1 | 46.1 | CC[N+]1([O-])CCN(c2ccc(Nc3cc(N(C)C(=O)Nc4c(Cl)c(OC)cc(OC)c4Cl)ncn3)cc2)CC1 [Compound 1, N-Oxide of 3-(2,6-Dichloro-3,5-dimethoxy-phenyl)-1-{6-[4-(4-ethyl-piperazin-1-yl)-phenylamino]-pyrimidin-4-yl}-1-methyl-urea] | 10.2 | CLint Rank ([2]; 1 μM): low; CLint Rank ([3]; 1 μM): low; CLint Rank ([7]; 1 μM): low; CLint Rank ([8]; 1 μM): low
2 | 35.2 | 39.4 | low | 3.8 | 364 | 10.3 | 134 | 2000 (≈ 1120 µg/mL) | 8.2 | 3.4 | Passive | Medium | 1.69 | 1.59 | 0.94 | 15.4 | 90.3 | 3.5 | 395 | CCN1CCN(c2ccc(Nc3cc(N(C)C(=O)Nc4c(Cl)c(OC)cc(OC)c4Cl)ncn3)cc2)CC1 [Compound 2, 3-(2,6-Dichloro-3,5-dimethoxy-phenyl)-1-{6-[4-(4-ethyl-piperazin-1-yl)-phenylamino]-pyrimidin-4-yl}-1-methyl-urea] | 3 | microsomal CLint at 1 μM ([2]; read-out: CLint Rank): > 150 µL/min/mg; microsomal CLint at 1 μM ([3]; read-out: CLint Rank): 50 to 150 µL/min/mg; microsomal CLint at 1 μM ([7]; read-out: CLint Rank): 50 to 150 µL/min/mg; microsomal CLint at 1 μM ([8]; read-out: CLint Rank): > 150 µL/min/mg
